Results on one molecule are retold here after patent publication US11583507B2, “Direct AMPK activator compounds” (SOCIETE DES PRODUITS NESTLE S.A., priority 2018, dated 2023).

The test deals with C2C12 AMPKα1α2+/+ cells. Nature of the test: Glucose uptake (3H-2-deoxyglucose) in differentiated C2C12 AMPKα1α2+/+ cells. It counts as cell-based, murine. From the text:
C2C12 AMPK α1α2 double knockout cell lines were generated by transient transfection of wild type cells with plasmids containing Cas9 enzyme linked to green fluorescent protein expression and Cas9 guide RNA sequences targeting the murine AMPK α1 subunit (sc-430618, SantaCruz) and the murine AMPK α2 subunit (sc-430803, SantaCruz). Cells positive for green fluorescent protein expression were single cell sorted by flow cytometry into 96-well plates containing growth medium and analysed for loss of AMPK signaling following expansion of the clones.
Differentiated C2C12 AMPKα1α2+/+ and AMPKα1α2−/− cells were treated with either vehicle (0.2% DMSO), 30 μM or 100 μM Lusianthridin for 1 h at 37° C. […] Finally, differentiated C2C12 AMPKα1α2+/+ and AMPKα1α2−/− cells were treated with either vehicle (0.2% DMSO) or 100 μM Lusianthridin in the presence or absence of 15 nM Wortmanin for 1 h at 37° C. For the Wortmanin experiments, differentiated C2C12 cells were pre-incubated with DMSO or Wortmanin for 1 h prior to treatment.
Glucose uptake was determined by monitoring the uptake of 3H-2-deoxyglucose into cells. C2C12 AMPKα1α2+/+ and AMPKα1α2−/− cells were maintained in DMEM GlutaMAX supplemented with 20% (vol/vol) FBS and 100 U/ml penicillin G, and 100 μg/ml streptomycin. […] Cells were lysed and the quantity of ^3H determined in these samples using a scintillation counter.

For `COc1cc(O)c2c(c1)CCc1cc(O)ccc1-2` [Lusianthridin, 7-Methoxy-9,10-dihydrophenanthrene-2,5-diol], the “glucose uptake (fold change relative to control)” value (C2C12 AMPKα1α2+/+, 30 or 100 μM Lusianthridin, 300 nM Insulin, 1 h at 37° C) was “increase in glucose uptake”. In addition, the “effect of Wortmanin on stimulated glucose uptake” value (in the presence of 15 nM Wortmanin (1 h pre-incubation), 100 μM Lusianthridin or 300 nM Insulin, 1 h) is given as “no effect”.
